{
  "source": "paper PMC9386255",
  "about": "“Specialized acyl carrier protein used by serine palmitoyltransferase to synthesize sphingolipids in Rhodobacteria” (Frontiers in Microbiology, 2022)",
  "type_in_all_cases": "biochemical",
  "key": {"[1]": {"target": "T1, FadDSm, acyl-CoA synthetase FadD from S. meliloti 1021 (Sinorhizobium meliloti, UniProt Q7APF7)", "T1 construct": "full length, His6-tagged (pET28a, pECH3), E. coli BL21(DE3) pLysS host, IMAC-purified, tag kept", "T1 sequence (Q7APF7 entry or part of it)": "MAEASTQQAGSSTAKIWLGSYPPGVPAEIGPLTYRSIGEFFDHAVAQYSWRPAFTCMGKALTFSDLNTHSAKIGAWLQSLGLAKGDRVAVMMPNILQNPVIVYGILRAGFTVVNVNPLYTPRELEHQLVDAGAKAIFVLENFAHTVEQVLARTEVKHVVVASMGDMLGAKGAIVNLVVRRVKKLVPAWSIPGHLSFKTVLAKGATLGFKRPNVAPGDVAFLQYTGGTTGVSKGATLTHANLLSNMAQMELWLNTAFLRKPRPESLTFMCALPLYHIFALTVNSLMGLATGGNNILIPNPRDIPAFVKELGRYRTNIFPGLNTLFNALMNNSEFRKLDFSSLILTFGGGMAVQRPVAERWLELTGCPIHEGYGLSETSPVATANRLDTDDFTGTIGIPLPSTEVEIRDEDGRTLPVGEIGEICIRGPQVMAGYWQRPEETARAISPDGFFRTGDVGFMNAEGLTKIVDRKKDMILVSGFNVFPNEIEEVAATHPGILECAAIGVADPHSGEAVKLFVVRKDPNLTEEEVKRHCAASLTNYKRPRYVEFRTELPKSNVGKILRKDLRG", "assay": "[3H]palmitoyl-CoA formation, heptane extraction, scintillation counting", "settings": "10 mM ATP, 10 mM MgSO4, 1 mM Triton X-100, pH 8.0, 37 C, 40 uM CoA"}, "[2]": {"target": "T2, SPTCc (CC_1162), serine palmitoyltransferase (Caulobacter vibrioides, UniProt Q9A932)", "T2 construct": "full length, expressed from pET9a (pJPG08) in E. coli BL21(DE3) pLysS, cell-free extract", "T2 sequence (Q9A932 1-404)": "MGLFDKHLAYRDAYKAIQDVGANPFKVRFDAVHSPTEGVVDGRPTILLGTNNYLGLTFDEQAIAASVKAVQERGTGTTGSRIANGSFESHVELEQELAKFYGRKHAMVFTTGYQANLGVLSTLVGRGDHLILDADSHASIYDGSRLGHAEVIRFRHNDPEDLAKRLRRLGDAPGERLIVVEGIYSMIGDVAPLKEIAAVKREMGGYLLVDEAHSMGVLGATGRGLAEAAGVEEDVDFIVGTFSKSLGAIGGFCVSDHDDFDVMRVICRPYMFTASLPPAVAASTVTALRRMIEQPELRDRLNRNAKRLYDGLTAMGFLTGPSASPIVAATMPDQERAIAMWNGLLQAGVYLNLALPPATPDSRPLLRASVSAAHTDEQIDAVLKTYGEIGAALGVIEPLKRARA", "assay": "L-[…]serine incorporation into 3-oxo-sphinganine, TLC autoradiography, empty-vector control", "settings": "10 uM palmitoyl-CoA, 432 uM L-[14C]serine, 10 uM pyridoxal phosphate, pH 7.5, 30 C; minor product"}, "[3]": {"target": "T3, SPTSw (Swit_3900), serine palmitoyltransferase (Rhizorhabdus wittichii, UniProt A0A9J9HEF8)", "T3 construct": "full length, expressed from pET9a (pJPG02) in E. coli BL21(DE3) pLysS, cell-free extract", "T3 sequence (A0A9J9HEF8 1-400)": "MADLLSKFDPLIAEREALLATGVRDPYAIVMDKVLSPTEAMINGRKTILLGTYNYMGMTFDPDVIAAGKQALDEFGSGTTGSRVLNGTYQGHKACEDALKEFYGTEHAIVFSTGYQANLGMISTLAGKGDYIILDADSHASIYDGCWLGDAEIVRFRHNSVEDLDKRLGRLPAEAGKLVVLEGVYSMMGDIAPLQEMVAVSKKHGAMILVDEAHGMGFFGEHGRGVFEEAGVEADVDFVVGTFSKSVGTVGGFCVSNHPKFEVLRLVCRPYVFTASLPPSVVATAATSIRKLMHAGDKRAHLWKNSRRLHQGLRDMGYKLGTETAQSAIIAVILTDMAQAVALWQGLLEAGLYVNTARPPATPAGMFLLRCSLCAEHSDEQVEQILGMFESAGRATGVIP", "assay": "L-[…]serine incorporation into 3-oxo-sphinganine, TLC autoradiography, empty-vector control", "settings": "10 uM palmitoyl-CoA, 432 uM L-[14C]serine, 10 uM pyridoxal phosphate, pH 7.5, 30 C; minor product"}, "[4]": {"target": "T4, SPTEc (ECD_02854), serine palmitoyltransferase (Escherichia coli, UniProt B1LEF2)", "T4 construct": "gene EcSMS35_3263; full length, expressed from pET9a (pJPG01) in E. coli BL21(DE3) pLysS, cell-free extract", "T4 sequence (B1LEF2 1-390)": "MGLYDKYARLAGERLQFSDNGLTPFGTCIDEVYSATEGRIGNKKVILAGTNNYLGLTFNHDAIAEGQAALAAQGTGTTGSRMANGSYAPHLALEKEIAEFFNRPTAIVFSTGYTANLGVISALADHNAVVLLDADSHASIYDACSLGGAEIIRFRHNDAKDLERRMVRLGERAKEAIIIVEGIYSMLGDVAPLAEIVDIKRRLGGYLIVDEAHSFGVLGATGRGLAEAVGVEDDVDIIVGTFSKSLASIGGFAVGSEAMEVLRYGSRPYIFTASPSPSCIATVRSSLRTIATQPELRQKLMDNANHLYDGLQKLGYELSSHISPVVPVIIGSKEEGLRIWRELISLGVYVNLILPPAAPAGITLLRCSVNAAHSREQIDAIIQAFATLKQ", "assay": "L-[…]serine incorporation into 3-oxo-sphinganine, TLC autoradiography, empty-vector control", "settings": "10 uM palmitoyl-CoA, 432 uM L-[14C]serine, 10 uM pyridoxal phosphate, pH 7.5, 30 C; minor product"}},
  "data": [
    {"smiles": "CC(C)(COP(=O)(O)OP(=O)(O)OC[C@H]1O[C@@H](n2cnc3c(N)ncnc32)[C@H](O)[C@@H]1OP(=O)(O)O)[C@@H](O)C(=O)NCCC(=O)NCCS", "note": "[CoA]", "values": [
      {"measurement": "[3H]palmitoyl-CoA formation, heptane extraction, scintillation counting", "setting": "[1]; 200 uM [3H]palmitate", "value": "acyl-CoA synthetase FadD is able to form acyl-CoA"}
    ]},
    {"smiles": "CCCCCCCCCCCCCCCC(=O)O", "note": "[palmitate]", "values": [
      {"measurement": "[3H]palmitoyl-CoA formation, heptane extraction, scintillation counting", "setting": "[1]; 200 uM palmitate, labelled compound", "value": "Using FadDSm in the acylation assay resulted in an increase in the amount of acyl-CoA"}
    ]},
    {"smiles": "CCCCCCCCCCCCCCCC(=O)SCCNC(=O)CCNC(=O)[C@H](O)C(C)(C)COP(=O)(O)OP(=O)(O)OC[C@H]1O[C@@H](n2cnc3c(N)ncnc32)[C@H](O)[C@@H]1OP(=O)(O)O", "note": "[palmitoyl-CoA]", "values": [
      {"measurement": "L-[14C]serine incorporation into 3-oxo-sphinganine, TLC autoradiography, empty-v", "setting": "[2]", "value": "using the SPTs from C. crescentus, E. coli BL21(DE3) or S. wittichii, and palmitoyl-CoA as thioester"},
      {"measurement": "L-[14C]serine incorporation into 3-oxo-sphinganine, TLC autoradiography, empty-v", "setting": "[3]", "value": "using the SPTs from C. crescentus, E. coli BL21(DE3) or S. wittichii, and palmitoyl-CoA as thioester"},
      {"measurement": "L-[14C]serine incorporation into 3-oxo-sphinganine, TLC autoradiography, empty-v", "setting": "[4]", "value": "using the SPTs from C. crescentus, E. coli BL21(DE3) or S. wittichii, and palmitoyl-CoA as thioester"}
    ]}
  ]
}
